Test results taken from patent US12331040B2 (Karyopharm Therapeutics Inc., priority 2013, dated 2025).
Like-named read-outs stand apart in the source and are kept apart here.

Experiments:
Assay in all cases: MTT cell proliferation assay
Assay type in all cases: cell-based
3T3 cells = settings: Mus musculus, NIH3T3, approximately 64-72 hours incubation
Procedure, shortened: (§1)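 5,000-10,000 cells/well, overnight attach; 8 conc., 1 nM–30 μM; MTT ~4 h; formazan solubilized, OD 490 nm; % inhibition = (1−(ODo/OD))×100 vs neg. control; mostly duplicate, mean±SE.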

MS751 cells = settings: Homo sapiens, MS751, MS751 cells, approximately 64-72 hours incubation
Procedure, shortened: as §1

Z138 cells = settings: Homo sapiens, Z-138, Z138 cells, approximately 64-72 hours incubation
Procedure, shortened: as §1

[1] = read-out: MTT Assay IC50 MS-751
[2] = read-out: MTT Assay IC50, MS-751
[3] = read-out: MTT Assay IC50, Z-138

SMILES | IC50 (3T3 cells; read-out: MTT Assay IC50 3T3) | IC50 (MS751 cells; [1]) | IC50 (Z138 cells; read-out: MTT Assay IC50 Z-138) | IC50 (3T3 cells; read-out: MTT Assay IC50, 3T3) | IC50 (MS751 cells; [2]) | IC50 (Z138 cells; [3])
CC1(F)CN(C(=O)c2ccc(-c3cc(Cl)c4oc(CNC(=O)/C=C/c5ccc(N)nc5)cc4c3)cc2)C1 [Compound 599, (E)-3-(6-aminopyridin-3-yl)-N-((7-chloro-5-(4-(3-fluoro-3-methylazetidine-1-carbonyl)phenyl)benzofuran-2-yl)methyl)acrylamide] | 5 to 10 µM | 0.1 to 5 µM | 0.1 to 5 µM | – | – | –
Nc1ccc(/C=C/C(=O)NCc2cc3cc(-c4ccc(CN5CCC(F)(F)CC5)cn4)cc(C(F)(F)F)c3o2)cn1 [Compound 675, (E)-3-(6-aminopyridin-3-yl)-N-((5-(5-((4,4-difluoropiperidin-1-yl)methyl)pyridin-2-yl)-7-(trifluoromethyl)benzofuran-2-yl)methyl)acrylamide] | – | – | – | > 10 µM | > 10 µM | > 10 µM
Nc1ccc(/C=C/C(=O)NCc2cc3cc(-c4ccc(C(=O)N5CCC(C(F)(F)F)CC5)cn4)cc(C(F)(F)F)c3o2)cn1 [Compound 615, (E)-3-(6-aminopyridin-3-yl)-N-((7-(trifluoromethyl)-5-(5-(4-(trifluoromethyl)piperidine-1-carbonyl)pyridin-2-yl)benzofuran-2-yl)methyl)acrylamide] | > 10 µM | 0.1 to 5 µM | 0.1 to 5 µM | – | – | –
O=C(/C=C/c1cccnc1)NCc1cc2cc(-c3ccc(C(=O)N4CCC(F)(F)CC4)cc3F)cc(C(F)(F)F)c2o1 [Compound 684, (E)-N-((5-(4-(4,4-difluoropiperidine-1-carbonyl)-2-fluorophenyl)-7-(trifluoromethyl)benzofuran-2-yl)methyl)-3-(pyridin-3-yl)acrylamide] | – | – | – | > 10 µM | 0.1 to 5 µM | 0.1 to 5 µM
Nc1ccc(/C=C/C(=O)NCc2cc3cc(-c4ccc(C(=O)N5CCC(F)(F)CC5)cn4)cnc3o2)cn1 [Compound 658, (E)-3-(6-aminopyridin-3-yl)-N-((5-(5-(4,4-difluoropiperidine-1-carbonyl)pyridin-2-yl)furo[2,3-b]pyridin-2-yl)methyl)acrylamide] | – | – | – | > 10 µM | 0.1 to 5 µM | 0.1 to 5 µM
Nc1ccc(/C=C/C(=O)NCc2cc3cc(-c4ccc(Oc5ccc(F)cc5)cc4)cc(-c4ccc(F)cc4)c3o2)cn1 [Compound 701, (E)-3-(6-aminopyridin-3-yl)-N-((5-(4-(4-fluorophenoxy)phenyl)-7-(4-fluorophenyl)benzofuran-2-yl)methyl)acrylamide] | – | – | – | > 10 µM | 0.1 to 5 µM | 0.1 to 5 µM
O=C(/C=C/c1cccnn1)NCc1cc2cc(-c3ccc(C(=O)N4CCOCC4)cc3)cc(Cl)c2o1 [Compound 540, (E)-N-((7-chloro-5-(4-(morpholine-4-carbonyl)phenyl)benzofuran-2-yl)methyl)-3-(pyridazin-3-yl)acrylamide] | 5 to 10 µM | 5 to 10 µM | 5 to 10 µM | – | – | –
COc1cc(-c2ccc(C(=O)N3CCNCC3)cn2)cc2cc(CNC(=O)/C=C/c3ccc(N)nc3)oc12 [Compound 641, (E)-3-(6-aminopyridin-3-yl)-N-((7-methoxy-5-(5-(piperazine-1-carbonyl)pyridin-2-yl)benzofuran-2-yl)methyl)acrylamide] | > 10 µM | < 0.1 µM | < 0.1 µM | – | – | –
Nc1ccc(/C=C/C(=O)NCc2cc3cc(-c4ccc(C(=S)N5CCC(F)(F)CC5)cc4F)cc(-c4ccc(F)cc4)c3o2)cn1 [Compound 758, (E)-3-(6-aminopyridin-3-yl)-N-((5-(4-(4,4-difluoropiperidine-1-carbonothioyl)-2-fluorophenyl)-7-(4-fluorophenyl)benzofuran-2-yl)methyl)acrylamide] | – | – | – | > 10 µM | < 0.1 µM | < 0.1 µM
Nc1ccc(/C=C/C(=O)NCc2cc3cc(C(F)(F)F)cc(-c4ccc(C(=O)N5CCC(F)(F)CC5)cc4)c3o2)cn1 [Compound 702, (E)-3-(6-aminopyridin-3-yl)-N-((7-(4-(4,4-difluoropiperidine-1-carbonyl)phenyl)-5-(trifluoromethyl)benzofuran-2-yl)methyl)acrylamide] | – | – | – | > 10 µM | 5 to 10 µM | 0.1 to 5 µM
Nc1ccc(/C=C/C(=O)NCc2cc3cc(-c4ccc(C(=O)N5CCOCC5)cn4)cc(-c4ccc(F)cc4)c3o2)cn1 [Compound 568, (E)-3-(6-aminopyridin-3-yl)-N-((7-(4-fluorophenyl)-5-(5-(morpholine-4-carbonyl)pyridin-2-yl)benzofuran-2-yl)methyl)acrylamide] | 0.1 to 5 µM | < 0.1 µM | < 0.1 µM | – | – | –
Nc1ccc(/C=C/C(=O)NCc2cc3cc(-c4ccc(F)c(C(=O)N5CCOCC5)n4)cc(Cl)c3o2)cn1 [Compound 581, (E)-3-(6-aminopyridin-3-yl)-N-((7-chloro-5-(5-fluoro-6-(morpholine-4-carbonyl)pyridin-2-yl)benzofuran-2-yl)methyl)acrylamide] | > 10 µM | < 0.1 µM | < 0.1 µM | – | – | –
Nc1ccc(/C=C/C(=O)NCc2cc3cc(-c4ccc(C(=O)NNc5cnccn5)cc4)cc(Cl)c3o2)cn1 [Compound 505, (E)-3-(6-aminopyridin-3-yl)-N-((7-chloro-5-(4-(2-(pyrazin-2-yl)hydrazine-1-carbonyl)phenyl)benzofuran-2-yl)methyl)acrylamide] | > 10 µM | 0.1 to 5 µM | 0.1 to 5 µM | – | – | –
O=C(/C=C/c1ccc(Cl)nc1)NCc1cc2cc(-c3ccc(C(=O)N4CCOCC4)cc3)cc(Cl)c2o1 [Compound 537, (E)-N-((7-Chloro-5-(4-(morpholine-4-carbonyl)phenyl)benzofuran-2-yl)methyl)-3-(6-chloropyridin-3-yl)acrylamide] | > 10 µM | > 10 µM | > 10 µM | – | – | –
Nc1ccc(/C=C/C(=O)NCc2cc3cc(-c4cnc(C(=O)N5CCOCC5)c(F)c4)cc(Cl)c3o2)cn1 [Compound 544, (E)-3-(6-aminopyridin-3-yl)-N-((7-chloro-5-(5-fluoro-6-(morpholine-4-carbonyl)pyridin-3-yl)benzofuran-2-yl)methyl)acrylamide] | > 10 µM | 0.1 to 5 µM | 0.1 to 5 µM | – | – | –
Nc1ccc(/C=C/C(=O)NCc2cc3cc(-c4ccc(C(=O)N5CCC(F)(F)CC5)cc4)cc(-c4ccncc4F)c3o2)cn1 [Compound 696, (E)-3-(6-aminopyridin-3-yl)-N-((5-(4-(4,4-difluoropiperidine-1-carbonyl)phenyl)-7-(3-fluoropyridin-4-yl)benzofuran-2-yl)methyl)acrylamide] | – | – | – | 0.1 to 5 µM | < 0.1 µM | < 0.1 µM
Nc1ccc(/C=C/C(=O)NCc2cc3cc(-c4ccc(C(=O)N5CC[C@H](Cl)C5)cc4)cc(C(F)(F)F)c3o2)cn1 [Compound 610, (S,E)-3-(6-aminopyridin-3-yl)-N-((5-(4-(3-chloropyrrolidine-1-carbonyl)phenyl)-7-(trifluoromethyl)benzofuran-2-yl)methyl)acrylamide] | > 10 µM | 0.1 to 5 µM | 0.1 to 5 µM | – | – | –
O=C(/C=C/c1cccnc1)NCc1cc2cc(-c3ccc(C(=O)N4CCC(F)(F)CC4)cn3)cc(-c3cccnc3)c2o1 [Compound 673, (E)-N-((5-(5-(4,4-difluoropiperidine-1-carbonyl)pyridin-2-yl)-7-(pyridin-3-yl)benzofuran-2-yl)methyl)-3-(pyridin-3-yl)acrylamide] | – | – | – | < 0.1 µM | < 0.1 µM | < 0.1 µM
